{"source": "paper PMC10978996", "about": "(Nature Communications, 2024)", "key": {"PsiM [1]": {"biological_target": "T1, PsiM (Psilocybe cubensis, UniProt P0DPA9)", "T1 construct": "full length, E. coli; Crystals: pJF45, His6 cut off by thrombin, vector-derived TEV site kept at N-terminus; Wild-type ITC and activity: His6-tagged without thrombin/TEV sites (pFB13); N247M: made from pJF45 template in pET-28a", "experiment": "isothermal titration calorimetry", "type": "binding"}, "[2]": {"tested_on": "CNCCc1c[nH]c2cccc(OP(=O)(O)O)c12", "experiment": "UHPLC-MS methyltransferase assay, Michaelis-Menten", "type": "biochemical, Psilocybe cubensis", "details": "1 mM SAM, 50 mM Tris pH 8.4, 28 °C, second methyl transfer"}, "PsiM [3]": {"biological_target": "T1, PsiM", "experiment": "UHPLC-MS methyltransferase assay, Michaelis-Menten", "type": "biochemical", "details": "1 mM SAM, 50 mM Tris pH 8.4, 28 °C; first methyl transfer"}}}
{"molecule": "Nc1ncnc2c1ncn2[C@@H]1O[C@H](CSCC[C@H](N)C(=O)O)[C@@H](O)[C@H]1O", "note": "[SAH]", "values": [{"measurement": "Kd", "setting": "PsiM [1]", "result": "66 ± 49", "unit": "µM"}]}
{"molecule": "PsiM (Psilocybe cubensis)", "values": [{"measurement": "Km", "setting": "[2]", "result": "492 ± 154", "unit": "µM"}, {"measurement": "kcat", "setting": "[2]", "result": "0.001 ± 0.00017", "unit": "s⁻¹"}]}
{"molecule": "CNCCc1c[nH]c2cccc(OP(=O)(O)O)c12", "note": "[baeocystin]", "values": [{"measurement": "Kd", "setting": "PsiM [1]", "result": "77.2 ± 3.5", "unit": "µM"}]}
{"molecule": "NCCc1c[nH]c2cccc(OP(=O)(O)O)c12", "note": "[norbaeocystin]", "values": [{"measurement": "Km", "setting": "PsiM [3]", "result": "575 ± 100", "unit": "µM"}, {"measurement": "Kd", "setting": "PsiM [1]", "result": "35.7 ± 5.4", "unit": "µM"}]}
